Source: PubChem BioAssay AID2060498 (Molecular Pharmacology Branch, DTP, NCI, 2025)

System: 171881-019-R-J1-PDC tumor spheroids, viability
Assay: Anticancer human tumor 171881-019-R-J1-PDC patient-derived invasive breast carcinoma cell line growth inhibition [GQUAD]
Details: spheroids with HUVEC and MSC; for IC50: curve of first compound; for viability, T/C: stronger effect = lower value
In short: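 Tumor cells were grown as complex spheroids with HUVEC endothelial cells and mesenchymal stem cells as stroma. G-quadruplex stabilizers were combined with targeted agents over half-log dilutions from near the clinical Cmax, or from 10 microM.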

[1] = second compound 0.0316 µM, first compound 0.0316 µM
[2] = second compound 0.0316 µM, first compound 0.1 µM
[3] = second compound 0.0316 µM, first compound 0.316 µM
[4] = second compound 0.0316 µM, first compound 1 µM
[5] = second compound 0.0316 µM, first compound 3.16 µM
[6] = second compound 0.0316 µM, first compound 10 µM
[7] = second compound 0.1 µM, first compound 0.0316 µM
[8] = second compound 0.1 µM, first compound 0.1 µM
[9] = second compound 0.1 µM, first compound 0.316 µM
[10] = second compound 0.1 µM, first compound 1 µM
[11] = second compound 0.1 µM, first compound 3.16 µM
[12] = second compound 0.1 µM, first compound 10 µM
[13] = second compound 0.316 µM, first compound 0.0316 µM
[14] = second compound 0.316 µM, first compound 0.1 µM
[15] = second compound 0.316 µM, first compound 0.316 µM
[16] = second compound 0.316 µM, first compound 1 µM
[17] = second compound 0.316 µM, first compound 3.16 µM
[18] = second compound 0.316 µM, first compound 10 µM
[19] = second compound 1 µM, first compound 0.0316 µM
[20] = second compound 1 µM, first compound 0.1 µM
[21] = second compound 1 µM, first compound 0.316 µM
[22] = second compound 1 µM, first compound 1 µM
[23] = second compound 1 µM, first compound 3.16 µM
[24] = second compound 1 µM, first compound 10 µM
[25] = second compound 3.16 µM, first compound 0.0316 µM
[26] = second compound 3.16 µM, first compound 0.1 µM
[27] = second compound 3.16 µM, first compound 0.316 µM
[28] = second compound 3.16 µM, first compound 1 µM
[29] = second compound 3.16 µM, first compound 3.16 µM
[30] = second compound 3.16 µM, first compound 10 µM
[31] = second compound 10 µM, first compound 0.0316 µM
[32] = second compound 10 µM, first compound 0.1 µM
[33] = second compound 10 µM, first compound 0.316 µM
[34] = second compound 10 µM, first compound 1 µM
[35] = second compound 10 µM, first compound 3.16 µM
[36] = second compound 10 µM, first compound 10 µM
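Note: spheroids exposed to compounds for 7 days.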
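Throughout, for viability, T/C: 100% = DMSO vehicle control viability.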

C#Cc1c(F)ccc2cc(O)cc(-c3ncc4c(N5CC6CCC(C5)N6)nc(OCC56CCCN5CC(F)C6)nc4c3F)c12 (centres undefined) + Cc1cnc(CNC(=O)c2c(=O)c3ccc(N4CCCN(C)CC4)nc3n3c2sc2ccccc23)cn1
IC50 (second compound 0.0316 µM): 0.425 µM | IC50 (second compound 0.1 µM): 0.403 µM | IC50 (second compound 0.316 µM): 0.405 µM | IC50 (second compound 1 µM): 0.482 µM | IC50 (second compound 3.16 µM): 0.286 µM | IC50 (second compound 10 µM): 0.148 µM | viability, T/C [1]: 96.7% | viability, T/C [2]: 71.8% | viability, T/C [3]: 52.7% | viability, T/C [4]: 42.3% | viability, T/C [5]: 29.4% | viability, T/C [6]: 26% | viability, T/C [7]: 75.7% | viability, T/C [8]: 66% | viability, T/C [9]: 52% | viability, T/C [10]: 41.3% | viability, T/C [11]: 30.1% | viability, T/C [12]: 27.4% | viability, T/C [13]: 68% | viability, T/C [14]: 62.3% | viability, T/C [15]: 51.7% | viability, T/C [16]: 42% | viability, T/C [17]: 37.1% | viability, T/C [18]: 32.3% | viability, T/C [19]: 64.6% | viability, T/C [20]: 56.9% | viability, T/C [21]: 55.6% | viability, T/C [22]: 44.2% | viability, T/C [23]: 41% | viability, T/C [24]: 40.9% | viability, T/C [25]: 60.3% | viability, T/C [26]: 52.5% | viability, T/C [27]: 52.9% | viability, T/C [28]: 44.3% | viability, T/C [29]: 41.5% | viability, T/C [30]: 41.5% | viability, T/C [31]: 52.1% | viability, T/C [32]: 54.5% | viability, T/C [33]: 49.4% | viability, T/C [34]: 41.2% | viability, T/C [35]: 44.8% | viability, T/C [36]: 43.5%

CC(=O)O[C@H]1C(=O)[C@@]2(C)[C@H]([C@H](OC(=O)c3ccccc3)[C@]3(O)C[C@H](OC(=O)[C@H](O)[C@@H](NC(=O)c4ccccc4)c4ccccc4)C(C)=C1C3(C)C)[C@]1(OC(C)=O)CO[C@@H]1C[C@@H]2O + Cc1cnc(CNC(=O)c2c(=O)c3ccc(N4CCCN(C)CC4)nc3n3c2sc2ccccc23)cn1
IC50 (second compound 0.0316 µM): < 0.0316 µM | IC50 (second compound 0.1 µM): < 0.0316 µM | IC50 (second compound 0.316 µM): < 0.0316 µM | IC50 (second compound 1 µM): < 0.0316 µM | IC50 (second compound 3.16 µM): < 0.0316 µM | IC50 (second compound 10 µM): < 0.0316 µM | viability, T/C [1]: 37.4% | viability, T/C [2]: 29.4% | viability, T/C [3]: 27.8% | viability, T/C [4]: 26% | viability, T/C [5]: 24.2% | viability, T/C [6]: 26.7% | viability, T/C [7]: 43.9% | viability, T/C [8]: 38% | viability, T/C [9]: 31.3% | viability, T/C [10]: 33.2% | viability, T/C [11]: 31.9% | viability, T/C [12]: 32.9% | viability, T/C [13]: 51.2% | viability, T/C [14]: 44.1% | viability, T/C [15]: 39.5% | viability, T/C [16]: 35% | viability, T/C [17]: 37.1% | viability, T/C [18]: 38.5% | viability, T/C [19]: 51.9% | viability, T/C [20]: 45.4% | viability, T/C [21]: 47% | viability, T/C [22]: 40.1% | viability, T/C [23]: 45% | viability, T/C [24]: 50.5% | viability, T/C [25]: 51.9% | viability, T/C [26]: 46.5% | viability, T/C [27]: 47% | viability, T/C [28]: 44.2% | viability, T/C [29]: 50.8% | viability, T/C [30]: 49.9% | viability, T/C [31]: 46.6% | viability, T/C [32]: 48.4% | viability, T/C [33]: 46% | viability, T/C [34]: 47.6% | viability, T/C [35]: 50.3% | viability, T/C [36]: 51.9%
